Results as given in ChEMBL document CHEMBL5226283, “Reactive Oxygen Species (ROS)-Responsive Prodrugs, Probes, and Theranostic Prodrugs: Applications in the ROS-Related Diseases” (J Med Chem, 2021).

Experiments:
[1] = target: Matrix metalloproteinase-9 (Homo sapiens, UniProt P14780); test: Inhibition of MMP9 (unknown origin)
A549 [2] = test: Antitumor activity against human A549 tumor spheroid cells assessed as reduction in size of tumor spheroid measured after 3 days by fluorescence microscopic analysis relative to control; format: functional; design: scale not given: the % may be the effect or the level left; conditions: time 3 day
[3] = Cytotoxicity against human HEK293T cells assessed as cell growth inhibition
4T1 = test: Antiproliferative activity against mouse 4T1 cells assessed as cell growth inhibition; format: functional, cell-based
A549 [4] = test: Antiproliferative activity against human A549 cells assessed as cell growth inhibition; format: functional, cell-based
MIA PaCa-2 = test: Antiproliferative activity against human MIA PaCa-2 cells assessed as cell growth inhibition; format: functional, cell-based
DNA [5] = test: Induction of ROS-mediated DNA (unknown origin) assessed as efficiency of ICL formation preincubated with compounds followed by H2O2 addition relative to control; format: functional
SF-539 = test: Antiproliferative activity against human SF-539 cells assessed as cell growth inhibition; format: functional
CCRF-CEM = test: Antiproliferative activity against human CCRF-CEM cells assessed as cell growth inhibition; format: functional
SF-268 = test: Antiproliferative activity against human SF-268 cells assessed as cell growth inhibition; format: functional
NCI-H460 [6] = test: Antiproliferative activity against human NCI-H460 cells assessed as cell growth inhibition; format: functional
CAKI-1 [7] = test: Antiproliferative activity against human CAKI-1 cells assessed as cell growth inhibition; format: functional
HL-60(TB) = test: Antiproliferative activity against human HL-60(TB) cells assessed as cell growth inhibition; format: functional
HOP-92 = test: Antiproliferative activity against human HOP-92 cells assessed as cell growth inhibition; format: functional
MCF7 = test: Antiproliferative activity against human MCF7 cells assessed as cell growth inhibition; format: functional
M14 = test: Antiproliferative activity against human M14 cells assessed as cell growth inhibition; format: functional
RXF 393 = test: Antiproliferative activity against human RXF 393 cells assessed as cell growth inhibition; format: functional
UACC-62 = test: Antiproliferative activity against human UACC-62 cells assessed as cell growth inhibition; format: functional
UO-31 = test: Antiproliferative activity against human UO-31 cells assessed as cell growth inhibition; format: functional
ACHN = test: Antiproliferative activity against human ACHN cells assessed as cell growth inhibition; format: functional
UACC-257 = test: Antiproliferative activity against human UACC-257 cells assessed as cell growth inhibition; format: functional
NCI-H23 = test: Antiproliferative activity against human NCI-H23 cells assessed as cell growth inhibition; format: functional
MOLT-4 = test: Antiproliferative activity against human MOLT-4 cells assessed as cell growth inhibition; format: functional
SR [8] = test: Antiproliferative activity against human SR cells assessed as cell growth inhibition; format: functional
MDA-MB-468 = test: Antiproliferative activity against human MDA-MB-468 cells assessed as cell growth inhibition; format: functional
NCI-H522 = test: Antiproliferative activity against human NCI-H522 cells assessed as cell growth inhibition; format: functional
SNB-75 = test: Antiproliferative activity against human SNB-75 cells assessed as cell growth inhibition; format: functional
DU-145 = test: Antiproliferative activity against human DU-145 cells assessed as cell growth inhibition; format: functional
SF-295 = test: Antiproliferative activity against human SF-295 cells assessed as cell growth inhibition; format: functional
LOX IMVI = test: Antiproliferative activity against human LOX IMVI cells assessed as cell growth inhibition; format: functional
786-0 = test: Antiproliferative activity against human 786-0 cells assessed as cell growth inhibition; format: functional
SN12C = test: Antiproliferative activity against human SN12C cells assessed as cell growth inhibition at 10 uM by SRB assay; format: functional; design: scale not given: the % may be the effect or the level left
SR [9] = test: Antiproliferative activity against human SR cells assessed as cell growth inhibition at 10 uM by SRB assay; format: functional; design: scale not given: the % may be the effect or the level left
CAKI-1 [10] = test: Antiproliferative activity against human CAKI-1 cells assessed as cell growth inhibition at 10 uM by SRB assay; format: functional; design: scale not given: the % may be the effect or the level left
DNA [11] = test: Induction of ROS-mediated DNA (unknown origin) ICL formation by measuring rate constant preincubated with compounds followed by H2O2 addition; format: functional
NCI-H460 [12] = test: Antiproliferative activity against human NCI-H460 cells assessed as cell growth inhibition at 10 uM by SRB assay; format: functional; design: scale not given: the % may be the effect or the level left
HeLa [13] = test: Antiproliferative activity against human HeLa cells assessed as cell growth inhibition at 12.5 uM relative to control; format: functional; design: scale not given: the % may be the effect or the level left
HeLa [14] = test: Antiproliferative activity against human HeLa cells assessed as cell growth inhibition at 2 uM relative to control; format: functional; design: scale not given: the % may be the effect or the level left
KB = test: Antiproliferative activity against human KB cells assessed as cell growth inhibition at 5 uM relative to control; format: functional; design: scale not given: the % may be the effect or the level left
WI-38 = test: Cytotoxicity against human WI-38 cells assessed as cell growth inhibition at 5 uM relative to control; format: functional; design: scale not given: the % may be the effect or the level left
[15] = Activation of Nrf2-ARE pathway in LPS-induced human HepG2-ARE-C8 cells; format: cell-based
[16] = Permeability of compound by PAMPA assay; format: ADME; conditions: read-out: permeability
Keap1/Nrf2 = Keap1/Nrf2 (Homo sapiens, UniProt Q14145+Q16236); test: Inhibition of Keap1-Nrf2 (unknown origin); format: protein assay
[17] = Oral bioavailability in C57BL/6 mouse; format: ADME, organism-based; conditions: in vivo

Matrix metalloproteinase-9, sequence (P14780 whole entry): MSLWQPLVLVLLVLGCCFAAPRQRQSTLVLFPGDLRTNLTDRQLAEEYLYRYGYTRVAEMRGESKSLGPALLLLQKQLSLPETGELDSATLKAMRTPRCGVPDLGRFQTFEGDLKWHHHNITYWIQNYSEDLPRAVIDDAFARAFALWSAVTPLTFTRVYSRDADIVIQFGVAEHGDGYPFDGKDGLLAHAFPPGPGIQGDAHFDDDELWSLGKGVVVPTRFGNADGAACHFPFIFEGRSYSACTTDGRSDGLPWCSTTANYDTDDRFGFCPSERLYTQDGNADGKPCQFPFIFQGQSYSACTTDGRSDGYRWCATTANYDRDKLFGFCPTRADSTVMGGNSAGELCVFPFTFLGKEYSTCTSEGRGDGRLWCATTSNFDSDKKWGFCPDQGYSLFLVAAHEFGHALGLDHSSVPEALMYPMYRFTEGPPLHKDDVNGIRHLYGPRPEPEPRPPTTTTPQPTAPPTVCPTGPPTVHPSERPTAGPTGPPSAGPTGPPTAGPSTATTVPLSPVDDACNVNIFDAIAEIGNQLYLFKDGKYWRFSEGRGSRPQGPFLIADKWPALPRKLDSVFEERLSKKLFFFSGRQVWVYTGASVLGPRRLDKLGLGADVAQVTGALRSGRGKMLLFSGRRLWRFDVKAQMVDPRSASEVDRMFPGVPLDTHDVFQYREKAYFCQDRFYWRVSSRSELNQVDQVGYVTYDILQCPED
Keap1/Nrf2, sequence (Q16236 whole entry): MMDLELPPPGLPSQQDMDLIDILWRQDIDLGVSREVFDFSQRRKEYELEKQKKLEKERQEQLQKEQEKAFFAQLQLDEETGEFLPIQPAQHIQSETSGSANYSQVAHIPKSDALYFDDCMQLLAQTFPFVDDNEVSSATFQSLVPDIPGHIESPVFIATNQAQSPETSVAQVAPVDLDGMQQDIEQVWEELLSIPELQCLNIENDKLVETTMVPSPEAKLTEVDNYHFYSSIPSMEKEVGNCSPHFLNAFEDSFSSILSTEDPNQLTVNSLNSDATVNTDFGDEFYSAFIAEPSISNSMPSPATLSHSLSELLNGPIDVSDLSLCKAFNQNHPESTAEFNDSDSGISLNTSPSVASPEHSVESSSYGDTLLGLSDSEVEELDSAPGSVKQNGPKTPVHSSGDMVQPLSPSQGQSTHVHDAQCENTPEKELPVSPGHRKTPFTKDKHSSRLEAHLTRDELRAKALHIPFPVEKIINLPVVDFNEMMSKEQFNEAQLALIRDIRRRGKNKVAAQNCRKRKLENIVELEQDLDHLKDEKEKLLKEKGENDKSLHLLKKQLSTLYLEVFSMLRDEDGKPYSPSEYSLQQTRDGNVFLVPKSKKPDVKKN
Keap1/Nrf2, sequence (Q14145 whole entry): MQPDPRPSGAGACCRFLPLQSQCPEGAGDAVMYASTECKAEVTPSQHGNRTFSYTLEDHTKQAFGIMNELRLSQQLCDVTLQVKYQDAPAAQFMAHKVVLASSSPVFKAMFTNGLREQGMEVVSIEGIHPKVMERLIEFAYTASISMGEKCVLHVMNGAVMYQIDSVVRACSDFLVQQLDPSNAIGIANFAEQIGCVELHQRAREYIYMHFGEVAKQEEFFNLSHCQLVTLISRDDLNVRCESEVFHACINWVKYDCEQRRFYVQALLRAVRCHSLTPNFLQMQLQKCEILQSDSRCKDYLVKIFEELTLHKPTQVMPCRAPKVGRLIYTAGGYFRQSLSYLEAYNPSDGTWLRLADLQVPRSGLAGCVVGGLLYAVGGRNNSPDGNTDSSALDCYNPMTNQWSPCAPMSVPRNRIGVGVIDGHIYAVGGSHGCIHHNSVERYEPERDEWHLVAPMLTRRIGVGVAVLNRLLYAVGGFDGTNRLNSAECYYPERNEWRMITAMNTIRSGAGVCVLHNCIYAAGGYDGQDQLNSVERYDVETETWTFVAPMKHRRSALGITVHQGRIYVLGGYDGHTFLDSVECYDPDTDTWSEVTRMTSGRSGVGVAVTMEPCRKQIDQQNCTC

CC1(C)OB(c2ccc(COc3c(C(=O)NCc4ccc(-c5ccccc5)cc4)occc3=O)cc2)OC1(C)C
IC50 [1]: > 1000 µM

CC1(C)OB(c2ccc(COC(=O)ONC(=O)CCCCCCC(=O)Nc3ccccc3)cc2)OC1(C)C
Activity (A549 [2]): 80% | EC50 [3]: > 1 µM

CCCCC/C=C\C/C=C\CCCCCCCC(=O)OCCOC(=O)CSCC(=O)OC(C(=O)OC1C[C@@]2(O)[C@@H](OC(=O)c3ccccc3)[C@@H]3[C@]4(OC(C)=O)CO[C@@H]4C[C@H](O)[C@@]3(C)C(=O)[C@H](OC(C)=O)C(=C1C)C2(C)C)C(NC(=O)c1ccccc1)c1ccccc1 (stereo partly drawn)
IC50 (4T1): 0.127 µM | IC50 (A549 [4]): 0.176 µM

COc1cccc2c1C(=O)c1c(O)c3c(c(O)c1C2=O)C[C@@](O)(C(=O)CO)C[C@@H]3O[C@H]1C[C@H](NC(=O)OCc2ccc(B3OC(C)(C)C(C)(C)O3)cc2)[C@H](O)[C@H](C)O1
IC50 (MIA PaCa-2): 0.3 µM

CC1(C)OB(c2ccc(COC(=O)Nc3ccc(N(CCCl)CCCl)cc3)cc2)OC1(C)C
Activity (DNA [5]): 47% | GI50 (SF-539): < 1 µM | GI50 (CCRF-CEM): < 1 µM | GI50 (SF-268): < 1 µM | GI50 (NCI-H460 [6]): < 1 µM | GI50 (CAKI-1 [7]): < 1 µM | GI50 (HL-60(TB)): < 1 µM | GI50 (HOP-92): < 1 µM | GI50 (MCF7): < 1 µM | GI50 (M14): < 1 µM | GI50 (A549 [4]): < 1 µM | GI50 (RXF 393): < 1 µM | GI50 (UACC-62): < 1 µM | GI50 (UO-31): < 1 µM | GI50 (ACHN): < 1 µM | GI50 (UACC-257): < 1 µM | GI50 (NCI-H23): < 1 µM | GI50 (MOLT-4): < 1 µM | GI50 (SR [8]): < 1 µM | GI50 (MDA-MB-468): < 1 µM | GI50 (NCI-H522): < 1 µM | GI50 (SNB-75): < 1 µM | GI50 (DU-145): < 1 µM | GI50 (SF-295): < 1 µM | GI50 (LOX IMVI): < 1 µM | GI50 (786-0): < 1 µM

CC1(C)OB(c2ccc(C[N+](C)(CCCl)CCCl)cc2)OC1(C)C.[Br-]
Activity (SN12C): 57% | Activity (DNA [5]): 43% | Activity (SR [9]): 90% | Activity (CAKI-1 [10]): 66% | K (DNA [11]): 4.6 10^-5/s | Activity (NCI-H460 [12]): 85%

COC(=O)[C@]1([Se]c2ccccc2)C[C@]2(C)C(=O)[C@]1(C)C(c1ccccc1)=C2c1ccccc1
Activity (HeLa [13]): <=80%

COc1cccc2c1C(=O)c1c(O)c3c(c(O)c1C2=O)C[C@@](O)(C(=O)CO)C[C@@H]3O[C@H]1C[C@H](N)[C@H](O)[C@H](C)O1 [DOXORUBICIN]
Activity (HeLa [14]): 20%

CCN(CC)c1ccc2c(c1)Oc1cc(OCc3ccc(B4OC(C)(C)C(C)(C)O4)cc3)c(COC(=O)OC3(CC)C(=O)OCc4c3cc3n(c4=O)Cc4cc5ccccc5nc4-3)cc1C21c2ccccc2CN1CCNC(=O)CCC(NC(=O)c1ccc(NCc2cnc3[nH]c(N)nc(=O)c3n2)cc1)C(=O)O (stereo not drawn)
Activity (KB): 70% | Activity (WI-38): 100%

CC1(C)OB(c2ccc(COn3c(C(=O)NCc4ccc(-c5ccccc5)cc4)cccc3=O)cc2)OC1(C)C
EC50 [15]: 0.32 µM | IC50 [1]: > 1000 µM | Papp [16]: 6.35 ×10⁻⁶ cm/s | IC50 (Keap1/Nrf2): 0.0967 µM | bioavailability [17]: 68.1%

O=C(CCCCCCC(=O)Nc1ccccc1)NO [VORINOSTAT]
Activity (A549 [2]): 50%
